Broadly, the half-life is the time needed for the level to fall by half in the phase considered.

Consider 3 molecules from patent publication US8383581B2, “Short-chain peptides as parathyroid hormone (PTH) receptor agonist” (Cadila Healthcare Limited, priority 2009, dated 2013).

Where a SMILES comes first, the peptide text is derived from it. [ ]: non-standard residue; d: D form. ξ: configuration not given here. ξαMeBip(2'-Et,4'-OMe) = CCc1cc(OC)ccc1-c1ccc(CC(C)(N)C(=O)O)cc1; ξBip(2'-Et-4'-OMe) = CCc1cc(OC)ccc1-c1ccc(CC(N)C(=O)O)cc1; ξαMe(hhPhe) = CC(N)(CCCc1ccccc1)C(=O)O; hhPhe = N[C@@H](CCCc1ccccc1)C(=O)O; hArg = N=C(N)NCCCC[C@H](N)C(=O)O; ξαMeM = CSCCC(C)(N)C(=O)O; Aib = CC(C)(N)C(=O)O

What all share (assay type): in vitro ADME
The nature of data set [1]: Stability of peptides in human plasma. The settings on record: human, plasma; for metabolised at 24 h, 2 μM: pH 7.8. The method in brief:
(§1)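 Peptides at 2 μM final incubated 0–24 h at 37 °C (50 mM triethanolamine-HCl, pH 7.8) in each matrix, matrix level set to degrade ~50% PTH(1-34) in 1 h; TFA-quenched, C18 HPLC at 206 nm with ESI-MS peak identification; percent degradation from peak areas at each time point.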

Data set [2] can be described thus: Stability of peptides in simulated gastric fluid (pH 1.5; HCl, NaCl and Pepsin). The settings on record: pH 1.5; for % degradation of peptides in 24 h when incubated with simulated gastric fluid: 2 μM; for half-life: simulated gi fluid.
A short description of data set [3]: Stability of peptides in simulated intestinal fluid (pH 7.5). The settings on record: pH 7.5; for half-life: simulated gi fluid; for % degradation of peptides in 24 h when incubated with simulated intestinal fluid: 2 μM. The method in brief: as §1
A short description of data set [4]: Stability of peptides in human liver microsomes. The settings on record: human, microsomes; for % degradation of peptides in 24 h when incubated with liver microsomes: 2 μM, pH 7.8. The method in brief:
as §1
(In general: Liver microsomes are a subcellular fraction often used to study metabolism.)

In data set [1], `CCc1cc(OC)ccc1-c1ccc(CC(NC(=O)[C@H](CCCCNC(=N)N)NC(=O)[C@H](C)NC(=O)[C@H](CCCCNC(=N)N)NC(=O)[C@H](CCC(N)=O)NC(=O)[C@H](Cc2c[nH]cn2)NC(=O)C(C)(CCSC)NC(=O)[C@H](CC(C)C)NC(=O)[C@H](CCC(N)=O)NC(=O)[C@@H](NC(=O)[C@H](CCC(=O)O)NC(=O)C(C)(C)NC(=O)[C@@H](NC(=O)C(C)(C)NC(=O)[C@@H](N)C(C)C)C(C)C)[C@@H](C)CC)C(=O)NC(C)(CCCc2ccccc2)C(N)=O)cc1` (stereo partly drawn) [Seq. ID. 920] (H-V[Aib]V[Aib]EIQL[ξαMeM]HQ[hArg]A[hArg][ξBip(2'-Et-4'-OMe)][ξαMe(hhPhe)]-NH2) yielded a half-life of more than 24 h and a metabolised at 24 h, 2 μM of 0%. Further, in data set [2], the “% degradation of peptides in 24 h when incubated with simulated gastric fluid” value (from here on “% degradation … with simulated gastric fluid”) is on record as 00% and the half-life was more than 24 h. In data set [3], the half-life was more than 24 h and the “% degradation of peptides in 24 h when incubated with simulated intestinal fluid” value (shortened to “% degradation … with simulated intestinal fluid”) is given as 00%. In addition, in data set [4], the “half-life (t1/2) in liver microsomes” value is given as “(5) h” and the “% degradation of peptides in 24 h when incubated with liver microsomes” value (shortened to “% degradation … with liver microsomes”) is 35%.
With `CC[C@H](C)[C@H](NC(=O)[C@H](CCC(=O)O)NC(=O)C(C)(C)NC(=O)[C@@H](NC(=O)C1(NC(=O)[C@@H](N)C(C)C)CC1)C(C)C)C(=O)N[C@@H](CCC(N)=O)C(=O)N[C@@H](CC(C)C)C(=O)NC(C)(CCSC)C(=O)N[C@@H](Cc1c[nH]cn1)C(=O)N[C@@H](CCC(N)=O)C(=O)N[C@@H](CCCCNC(=N)N)C(=O)N[C@@H](C)C(=O)N[C@@H](CCCCNC(=N)N)C(=O)NC(C)(Cc1c[nH]c2ccccc12)C(=O)NC(C)(CCCc1ccccc1)C(N)=O` (single isomer, unassigned) [Seq. ID. 950], in data set [1], the half-life is more than 24 h and the metabolised at 24 h, 2 μM was found to be 0%. In data set [2], the “% degradation … with simulated gastric fluid” value was 00% and the half-life was more than 24 h. Further, in data set [3], the half-life was more than 24 h and the “% degradation … with simulated intestinal fluid” value is listed as 00%. For the same molecule, in data set [4], the “half-life (t1/2) in liver microsomes” value is “(5) h” and the “% degradation … with liver microsomes” value came to 35%.
`CCc1cc(OC)ccc1-c1ccc(CC(C)(NC(=O)[C@H](CCCCNC(=N)N)NC(=O)[C@H](C)NC(=O)[C@H](CCCCNC(=N)N)NC(=O)[C@H](CCC(N)=O)NC(=O)[C@H](Cc2c[nH]cn2)NC(=O)C(C)(CCSC)NC(=O)[C@H](CC(C)C)NC(=O)[C@H](CCC(N)=O)NC(=O)[C@@H](NC(=O)[C@H](CCC(=O)O)NC(=O)C(C)(C)NC(=O)[C@@H](NC(=O)C(C)(C)N)C(C)C)[C@@H](C)CC)C(=O)N[C@@H](CCCc2ccccc2)C(N)=O)cc1` (stereo partly drawn) [Seq. ID. 910] (H-[Aib]V[Aib]EIQL[ξαMeM]HQ[hArg]A[hArg][ξαMeBip(2'-Et,4'-OMe)][hhPhe]-NH2): in data set [1], the “half-life (t1/2) in human plasma” value is reported as “(9) h” and the metabolised at 24 h, 2 μM came to 77%. Moreover, in data set [2], the “% degradation … with simulated gastric fluid” value is 100% and the half-life was 0.5 h. Also, in data set [3], the half-life is 0.5 h and the “% degradation … with simulated intestinal fluid” value is given as 100%. In data set [4], the half-life was determined as 0.5 h and the “% degradation … with liver microsomes” value is recorded as 100%.
